Here are results for two compounds from patent publication US8609643B2, “2-methylene-(20S,25R)-19,26-dinor-vitamin D analogs” (Wisconsin Alumni Research Foundation, priority 2007, dated 2013).

By pEC50 is commonly meant the negative decadic logarithm of the EC50, by convention in mol/L.

The structures appear in SMILES notation. pEC50: −log10 of the molar value.

In test [1] the test system is 24-hydroxylase (24Ohase) gene promoter. Put plainly: In vitro transcription assay, luciferase reporter in ROS 17/2.8 (bone) cells. In kind it is cell-based. The conditions noted are these: ROS 17/2.8 cells, 24Ohase promoter-luciferase; FIG. 3; read-out: EC50, transcriptional activity in bone cells (24-hydroxylase gene). As for the experimental part: Transcription activity was measured in ROS 17/2.8 (bone) cells that were stably transfected with a 24-hydroxylase (24Ohase) gene promoter upstream of a luciferase reporter gene (Arbour et al., 1998). Cells were given a range of doses. Sixteen hours after dosing the cells were harvested and luciferase activities were measured using a luminometer.
RLU=relative luciferase units.
Background: In a reporter assay the amount or activity of a reporter protein is the signal.

For test [2], the system named is HL-60 cells. The experiment in a line: HL-60 cell differentiation (nitro blue tetrazolium reduction). In kind it is cell-based, Human. The conditions noted are these: for pEC50: HL-60 differentiation into monocytes, FIG. 2. As for the experimental part: The study drugs were dissolved in ethanol and the concentrations determined using UV spectrophotometry. Serial dilutions were prepared so that a range of drug concentrations could be tested without changing the final concentration of ethanol (≦0.2%) present in the cell cultures.
Human promyelocytic leukemia (HL60) cells were grown in RPMI-1640 medium containing 10% fetal bovine serum. The cells were incubated at 37° C. in the presence of 5% CO2.
HL60 cells were plated at 1.2×10^5 cells/ml. Eighteen hours after plating, cells in duplicate were treated with drug. Four days later, the cells were harvested and a nitro blue tetrazolium reduction assay was performed (Collins et al., 1979; J. Exp. Med. 149:969-974). The percentage of differentiated cells was determined by counting a total of 200 cells and recording the number that contained intracellular black-blue formazan deposits. Verification of differentiation to monocytic cells was determined by measuring phagocytic activity (data not shown).

A short description of test [3]: Intestinal calcium transport, everted gut sac method, vitamin D-deficient rats. In kind it is in vivo, Sprague-Dawley rats. The following applies: ip, FIGS. 5A and 5B. The procedure:
(§1) Male, weanling Sprague-Dawley rats were placed on Diet 11 (0.47% Ca) diet+AEK oil for one week followed by Diet 11 (0.02% Ca)+AEK oil for 3 weeks. The rats were then switched to a diet containing 0.47% Ca for one week followed by two weeks on a diet containing 0.02% Ca. Dose administration began during the last week on 0.02% calcium diet. Four consecutive ip doses were given approximately 24 hours apart. Twenty-four hours after the last dose, blood was collected from the severed neck and the concentration of serum calcium determined as a measure of bone calcium mobilization. The first 10 cm of the intestine was also collected for intestinal calcium transport analysis using the everted gut sac method.

A short description of test [4]: Bone calcium mobilization (serum calcium) in vitamin D-deficient rats. The following applies: ip. In kind it is in vivo, Sprague-Dawley rats. As for the experimental part:
as §1

For `C=C1[C@H](O)CC(=C/C=C2\CCC[C@@]3(C)C2CC[C@@H]3[C@@H](C)CCC[C@@H](C)O)C[C@H]1O` (stereo partly drawn) [SR1, 2-methylene-(20S,25R)-19,26-dinor-1α,25-dihydroxyvitamin D3], the pEC50 in test [1] was 11.00; in test [2] (Homo sapiens), 10.00. The “potency on HL-60 cell differentiation relative to 1,25(OH)2D3 (times more potent)” value in test [2] (versus 1,25(OH)2D3) is reported as “about 10 times”. Besides, the intestinal calcium transport result was “promotes intestinal calcium transport only slightly” in test [3] (260 pmol/day) and “significant intestinal calcium transport activity was recorded” in test [3] (7020 pmol/day). Also, the “bone calcium mobilization (serum calcium)” value in test [4] (260 pmol/day for 4 consecutive days, rats on 0.02% Ca diet) is “did not result in mobilization of bone calcium”; in test [4] (7020 pmol/day, rats on 0.02% Ca diet), “without any substantial effect”. Moreover, the “potency in mobilizing bone calcium relative to the native hormone (times less potent)” value in test [4] (versus 1,25(OH)2D3, rats) is reported as “approximately 30 times”.
As for `C=C1/C(=C\C=C2/CCC[C@]3(C)[C@@H]([C@H](C)CCCC(C)(C)O)CC[C@@H]23)C[C@@H](O)C[C@@H]1O` [1,25(OH)2D3, 1α,25-dihydroxyvitamin D3, reference compound], the pEC50 in test [1] was 9.70; in test [2] it was 8.70. The intestinal calcium transport result in test [3] (260 pmol/day) was “promotes a significant increase”. Further, the “serum calcium levels (bone calcium mobilization)” value in test [4] (all dosages, rats on 0.02% Ca diet, FIGS. 4A and 4B) was “increased serum calcium levels at all dosages”.
